Experimental data taken from PMC7168207, “Dibasic Derivatives of Phenylcarbamic Acid as Prospective Antibacterial Agents Interacting with Cytoplasmic Membrane” (Antibiotics, 2020).
Values joined by “and” are separate entries in the source; they are usually repeats but may differ in a detail not shown here. Equal values may be shown once. Read-outs that look alike come from different tables or passages of the source.

Tests used:
[1] = system: S. aureus ATCC 29213 biofilm; test: biofilm inhibition assay (crystal violet); type: cell-based, Staphylococcus aureus; conditions: ≥80% inhibition of biofilm formation; for MBIC80 (minimum biofilm inhibitory concentration): 48 h
Experimental: (§1) The ability of compounds 1f, 1g, and 1h to inhibit biofilm growth and destroy the matured biofilm of S. aureus ATCC 29213 was investigated. The inhibitory activity was studied by the method with crystal violet. The activity to disrupt matured biofilm was evaluated as a decrease of metabolic activity using the MTT assay.
The plates were inoculated by inoculum of S. aureus ATCC 29213 grown in TSB + 2% glucose to exponential phase. Before the inoculation of the plate, the original inoculum was diluted to 1 McFarland and then 1:100 in fresh TSB + 2% glucose, to reach the final concentrations in the wells of […]. […] The plates were incubated at 37 °C for 48 h. After incubation, the contents of the wells were removed, and the plates were washed three times by sterile PBS. After drying, 125 μL of 0.5% crystal violet was added to each well and the plates were stained at room temperature for 20 min. Then the dye was removed, and the plates were washed three times by sterile PBS. The colored biofilm was detached from the wells using 33% solution of acetic acid. The absorbance at 595 nm was measured. As a blank, a non-inoculated plate treated in the same way was used. […] The minimum biofilm inhibitory concentration was the lowest concentration of the compounds, which inhibited the growth of 80% bacteria compared to the growth control. The experiment was made in duplicate and repeated at least three times.

[2] = system: S. aureus ATCC 29213 biofilm; test: biofilm susceptibility / eradication of preformed biofilm (MTT); type: cell-based, Staphylococcus aureus; conditions: for MBEC80 (minimum biofilm eradication concentration): 80% reduction of metabolic activity of preformed biofilm, 24 h
Experimental: as §1
Biofilms were grown as described above but without the presence of the compounds. After 48 h of incubation at 37 °C, the contents of the wells were removed, and the plates were washed three times by sterile PBS. After washing, 100 µL of tested compounds in CaMH were added to the wells. […] A growth control containing 2.5% of DMSO in CaMH was included. The plates were incubated at 37 °C for 24 h, then the solutions of compounds were removed, and the plates were gently washed three times by sterile PBS. Bacterial viability was analyzed using 100 µL of 0.05 mg/mL MTT (3-(4,5-dimethylthiazol-2-yl)- 2,5-diphenyltetrazolium bromide) in PBS in each well. The plates with MTT were incubated at 37 °C for 1–2 h in darkness, until the blue formazan crystals appeared. MTT solution was removed and the plates were washed once by PBS. Crystals of formazan were dissolved using 17% sodium dodecysulphate in 40% dimethylformamid. The absorbance at 570 nm was measured and the percentage of eradication was counted according to the equation (3) % of eradication = 100 − OD570S/OD570C × 100 where OD570S is the absorbance of the sample at 570 nm and OD570C is the absorbance of the growth control at 570 nm. The minimum biofilm eradication concentration was the lowest concentration of the compound, which reduced the metabolic activity of the biofilm by 80% compared to the growth control. The experiment was made in duplicate and repeated at least three times.

[3] = system: vancomycin-resistant enterococci VRE 342B; test: MIC, broth microdilution; type: cell-based, Enterococcus faecalis; conditions: Enterococcus, read-out: MICs
How it was run: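 Broth microdilution in CaMH (staphylococci) or BHI (enterococci), 5 × 10^5 CFU/mL per well, 37 °C aerobic overnight.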

E. faecalis ATCC 29212 = test: MIC, broth microdilution; type: cell-based, Enterococcus faecalis; conditions: Enterococcus faecalis, ATCC 29212 / ATCC 29213; EF = E. faecalis ATCC 29213
How it was run: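 Each strain, standardized to 0.5 McFarland and brought to a final 5 × 10^5 CFU/mL, was exposed to compound dilutions in genus-appropriate medium (cation-adjusted MH for S. aureus, BHI for enterococci). It was then held overnight under air at 37 °C before growth inhibition was scored.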

[4] = set-up: method as in PMID 30274224; conditions: cited from earlier work
VRE 368 = test: synergy with antibiotics (FIC index, checkerboard); type: cell-based, Enterococcus faecalis; conditions: for MIC: Enterococcus, VRE, read-out: MIC of each antibacterial drug alone observed in the synergy experiment; for concentrations of the tested compound/clinically used antibiotic providing additivity or synergy: in the combination of that line
Source text: (§2) Representatives from various classes were chosen in order to study the potential difference in synergistic activity according to the diverse mechanisms of action and resistance of these drugs. The method of minimal fractional inhibitory concentration (FIC) index (FICI) in a microtitration plate was used. FICI ≤ 0.5 means synergy; 0.5 < FICI < 1 means additivity; 1 ≤ FICI < 4 means indifference; and FICI ≥ 4 means antagonism.
(§3) For synergy effect study, a method of fractional inhibitory concentration was used. […] Raw H was used for the evaluation of MIC(A); column 12 was used for evaluation of MIC(B). The plate was inoculated by the bacterial suspension to reach final concentration of 5 × 10^5 CFU/mL in the wells. The fractional inhibitory concentration (FIC) index was calculated using the concentrations in the first nonturbid (clear) well found in each row and column along the turbidity/nonturbidity interface. To interpret the combined effect, the lowest FICI was used. A ΣFIC ≤ 0.5 means synergy; 0.5 < ΣFIC < 1 means additivity; 1 ≤ ΣFIC < 4 means indifference; and ΣFIC ≥ 4 means antagonism. The tests were made in duplicate, and the results were averaged.

VRE 342B = test: synergy with antibiotics (FIC index, checkerboard); type: cell-based, Enterococcus faecalis; conditions: for MIC: Enterococcus, read-out: MIC of each antibacterial drug alone observed in the synergy experiment; for concentrations of the tested compound/clinically used antibiotic providing additivity or synergy: in the combination of that line
Source text: as §2, §3

[5] = VRE 368, tested compound/antibiotic
[6] = VRE 342B, tested compound/antibiotic

SMILES	minimum biofilm inhibitory concentration relative to MIC against planktonic cells [1]	MBIC80 (minimum biofilm inhibitory concentration) [1] [µg/mL]	MBEC80 (minimum biofilm eradication concentration) [2] [µg/mL]	MIC ([3]; VRE1 = VRE 342B)	MIC (E. faecalis ATCC 29212)	γ (surface tension, relative surface activity) [4] [N/m]	MIC (VRE 368; [5]) [µg/mL]	concentrations of the tested compound/clinically used antibiotic providing additivity or synergy (VRE 368; VRE 368) [µg/mL]	MIC (VRE 342B; [6]) [µg/mL]	concentrations of the tested compound/clinically used antibiotic providing additivity or synergy (VRE 342B; VRE 342B)	concentration giving 80% degradation of preformed biofilm relative to MIC [2]	MIC (VRE 368) [µg/mL]	MIC (VRE 342B; VRE) [µg/mL]	MIC ([3]; VRE)
CCCCCOc1cccc(NC(=O)OC(CN(CCC)CCC)CN2CCCC2)c1.Cl.Cl (stereo not shown) [1f, 1-[3-(dipropylammonio)-2-({[3-(pentyloxy)phenyl]carbamoyl}-oxy)propyl]pyrrolidinium dichloride]	two-fold higher	32	64	16 µg/mL and 31.6 µM	32 µg/mL and 63.2 µM	0.06285								
CCCCCCOc1cccc(NC(=O)OC(CN(CCC)CCC)CN2CCCC2)c1.Cl.Cl (stereo not shown) [1g, 1-[3-(dipropylammonio)-2-({[3-(hexyloxy)phenyl]carbamoyl}oxy)propyl]pyrrolidinium dichloride]	equal to minimum inhibitory concentration against planktonic cells	8	16	8 µg/mL and 15.4 µM	16 µg/mL and 30.8 µM	0.06105	8	4	8	4 µg/mL				
CCCCCCCOc1cccc(NC(=O)OC(CN(CCC)CCC)CN2CCCC2)c1.Cl.Cl (stereo not shown) [1h, 1-[3-(Dipropylammonio)-2-({[3-(heptyloxy)phenyl]carbamoyl}oxy)propyl]pyrrolidinium dichloride]	equal to minimum inhibitory concentration against planktonic cells	8	16	4 µg/mL and 7.51 µM	8 µg/mL and 15 µM	0.05786	4		8	2 µg/mL	two-fold			
CN[C@H](CC(C)C)C(=O)N[C@H]1C(=O)N[C@@H](CC(N)=O)C(=O)N[C@H]2C(=O)N[C@H]3C(=O)N[C@H](C(=O)N[C@H](C(=O)O)c4cc(O)cc(O)c4-c4cc3ccc4O)[C@H](O)c3ccc(c(Cl)c3)Oc3cc2cc(c3O[C@@H]2O[C@H](CO)[C@@H](O)[C@H](O)[C@H]2O[C@H]2C[C@](C)(N)[C@H](O)[C@H](C)O2)Oc2ccc(cc2Cl)[C@H]1O [VAN, vancomycin, reference compound]								128		128 µg/mL and 256 µg/mL		512	1020	512 µg/mL and 353 µM
